Calls of active or inactive are those of the source. The rule behind the calls is not given here.
Legend:
[1] = Cmax in fasted Sprague-Dawley rat at 5 mg/kg, IG measured for 24 hrs; type: ADME, organism-based; parameters: dose 5 mg/kg, time 24 hrs, route ig; details: in vivo, po
[2] = Metabolic stability in monkey liver microsomes assessed as intrinsic clearance at 1 uM incubated for 60 mins in presence of NADPH by LC-MS/MS analysis; type: ADME, Macaca mulatta, Microsome; details: rhesus monkey, read-out: CLH
[3] = Protein binding in monkey plasma at 0.1 to 10 uM incubated for 5 hrs by LC-MS/MS based rapid equilibrium dialysis method; type: ADME, cell-free, Macaca mulatta; details: rhesus monkey, dose 0.1-10 µM, read-out: PPB (converted)
CYP2B6 = target: T1, CYP2B6 (Homo sapiens, UniProt P20813); experiment: Inhibition of CYP2B6 in human liver microsomes using bupropion as substrate at 10 uM incubated for 10 mins in presence of NADPH by LC-MS/MS analysis relative to control; type: ADME, Microsome; details: probe bupropion
T1 sequence (P20813 whole entry): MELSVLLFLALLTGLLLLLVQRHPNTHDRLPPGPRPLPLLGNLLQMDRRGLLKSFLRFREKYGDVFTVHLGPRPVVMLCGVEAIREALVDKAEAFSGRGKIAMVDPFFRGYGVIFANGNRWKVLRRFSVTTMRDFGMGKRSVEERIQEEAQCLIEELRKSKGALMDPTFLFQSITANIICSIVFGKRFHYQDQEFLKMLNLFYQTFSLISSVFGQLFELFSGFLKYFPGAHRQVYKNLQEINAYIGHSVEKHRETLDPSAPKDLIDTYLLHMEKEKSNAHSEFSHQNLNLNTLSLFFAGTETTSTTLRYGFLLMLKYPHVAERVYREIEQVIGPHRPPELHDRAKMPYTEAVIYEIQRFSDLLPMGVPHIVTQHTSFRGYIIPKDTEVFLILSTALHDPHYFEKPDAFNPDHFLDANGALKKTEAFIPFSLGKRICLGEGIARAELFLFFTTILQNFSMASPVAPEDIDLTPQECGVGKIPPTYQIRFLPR

[4] = Protein binding in rat plasma at 1 uM incubated for 5 hrs by LC-MS/MS based rapid equilibrium dialysis method; type: ADME, cell-free; details: read-out: PPB (converted)
Mus musculus = experiment: In vivo inhibition of MAO-B in ICR mouse assessed as reduction in enzyme activity in brain administered once intraperitoneally for 30 to 60 mins by amplex red based assay; type: functional, organism-based; details: dose 0.08-1.28 mg/kg, route ip, time 30-60 min
CYP2C19 = CYP2C19 (Homo sapiens, UniProt P33261); experiment: Inhibition of CYP2C19 in human liver microsomes using omeprazole as substrate at 10 uM incubated for 45 mins in presence of NADPH by LC-MS/MS analysis relative to control; type: ADME, Microsome; details: probe omeprazole
CYP2C19, sequence (P33261 whole entry): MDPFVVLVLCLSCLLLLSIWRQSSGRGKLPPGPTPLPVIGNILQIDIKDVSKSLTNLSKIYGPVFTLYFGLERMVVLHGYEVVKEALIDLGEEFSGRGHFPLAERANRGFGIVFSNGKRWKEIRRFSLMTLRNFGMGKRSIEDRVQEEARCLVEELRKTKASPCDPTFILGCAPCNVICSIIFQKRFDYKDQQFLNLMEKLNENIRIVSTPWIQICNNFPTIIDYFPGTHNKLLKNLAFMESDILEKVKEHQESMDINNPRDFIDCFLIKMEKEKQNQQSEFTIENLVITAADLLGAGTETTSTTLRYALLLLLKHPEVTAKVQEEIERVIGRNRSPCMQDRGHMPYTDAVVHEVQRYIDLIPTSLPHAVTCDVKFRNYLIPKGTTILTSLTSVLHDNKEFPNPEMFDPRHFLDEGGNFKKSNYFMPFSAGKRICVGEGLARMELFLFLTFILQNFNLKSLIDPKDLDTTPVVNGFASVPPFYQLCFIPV

- Cmax [1]: 436 ng/mL
- CLint scaled at 1 µM [2]: 4.1 mL/min/kg
- fraction unbound at 5 h, up to 10 µM [3]: 0.0029
- inhibition at 10 min, 10 µM (CYP2B6): 41.2%
- fraction unbound at 5 h, 1 µM [4]: 0.0062
- inhibition at 0.75 h, 10 µM (CYP2C19): 75.9%
Compound: NC(=O)[C@@H]1C[C@H](F)CN1Cc1ccc2oc(-c3ccc(F)cc3)cc2c1
- inhibition (Mus musculus): Active

— ChEMBL document CHEMBL5346941, “Design, synthesis and evaluation of novel monoamine oxidase B (MAO-B) inhibitors with improved pharmacokinetic properties for Parkinson's disease” (Eur J Med Chem, 2023)
